Data published in patent US12351574B2, “Selective ligands for modulation of GIRK channels” (Northeastern University, priority 2018, dated 2025).

Columns and labels:
GIRK1/2(I-V) = molecular target: T1, GIRK1/2(I-V) (UniProt P48542+P48549, I97V); assay: TEVC in Xenopus oocytes, single mutant GIRK1/2(I-V); format: cell-based, human GIRK1, mouse GIRK2; settings: GIRK1/2(I-V) single mutant
T1 construct: expressed in transfected cells; host or cells: Xenopus laevis oocytes (cRNA injection)
T1 sequence (P48549 1-501): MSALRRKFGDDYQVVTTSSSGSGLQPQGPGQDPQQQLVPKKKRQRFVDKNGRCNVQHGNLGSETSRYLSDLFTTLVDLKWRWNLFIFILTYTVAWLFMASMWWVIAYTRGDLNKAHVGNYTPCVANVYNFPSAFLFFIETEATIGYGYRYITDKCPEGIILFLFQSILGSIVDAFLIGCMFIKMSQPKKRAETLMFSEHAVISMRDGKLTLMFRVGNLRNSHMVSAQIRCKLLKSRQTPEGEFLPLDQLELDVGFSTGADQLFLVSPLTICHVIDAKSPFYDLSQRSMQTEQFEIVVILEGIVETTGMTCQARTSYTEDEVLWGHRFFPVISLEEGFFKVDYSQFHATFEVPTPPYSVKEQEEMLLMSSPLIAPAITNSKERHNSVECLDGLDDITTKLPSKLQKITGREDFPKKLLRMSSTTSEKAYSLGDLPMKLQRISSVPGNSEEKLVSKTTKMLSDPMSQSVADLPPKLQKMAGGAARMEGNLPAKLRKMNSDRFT
T1 sequence (P48542 1-425 I97V): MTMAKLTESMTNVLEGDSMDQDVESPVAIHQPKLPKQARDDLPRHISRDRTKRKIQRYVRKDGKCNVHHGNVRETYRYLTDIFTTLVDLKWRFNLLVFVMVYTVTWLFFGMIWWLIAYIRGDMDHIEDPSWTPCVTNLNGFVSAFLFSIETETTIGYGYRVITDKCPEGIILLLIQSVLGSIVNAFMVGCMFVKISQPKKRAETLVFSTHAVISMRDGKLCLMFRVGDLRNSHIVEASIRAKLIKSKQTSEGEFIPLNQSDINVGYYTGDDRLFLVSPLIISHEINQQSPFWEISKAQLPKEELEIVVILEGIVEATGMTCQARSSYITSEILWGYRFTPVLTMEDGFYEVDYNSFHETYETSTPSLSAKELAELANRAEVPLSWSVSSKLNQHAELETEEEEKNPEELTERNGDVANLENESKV
Description: (§1) Molecular biology: For Xenopus oocyte expression, human GIRK1 and human GIRK4 cDNAs were subcloned into pGEMHE. For mammalian expression, human GIRK1 and human GIRK4 cDNAs were subcloned into pcDNA3 and pcDNA3.1/V5-His B, respectively (Invitrogen). Mouse GIRK2 cDNA was subcloned in the dual-function vector, pXoom. Point mutations were introduced using a standard Pfu-based mutagenesis technique according to the QuikChange protocol (Agilent). Mutations were verified by sequencing.
(§2) Electrophysiology of oocytes: Whole-oocyte currents were measured by conventional two-electrode voltage clamp (TEVC) with a GeneClamp 500 amplifier (Axon Instruments). Agarose cushion microelectrodes were filled with 1.5% (w/v) agarose in 3 M KCl and were used with resistances between 0.1 and 1.5 megaohms. […] Barium-sensitive basal currents from both groups, 1) Vehicle, 2) single concentration at 10 μM and 3) multiple concentrations of ML297 or GAT compounds in the presence of HK solution, were assessed at −80 mV using TEVC. Barium-sensitive currents were normalized to average basal current in the vehicle solutions. The HK solution contained the following: 96 mM KCl, 1 mM NaCl, 1 mM MgCl2, 5 mM KOH/HEPES, pH 7.4. The barium solution consisted of HK+10 mM BaCl2. Five to ten oocytes from the same batch (same frog) were recorded for each group, and the experiments were repeated in at least four batches. Data acquisition and analysis were carried out using pClamp9 (Molecular Devices) and OriginPro (Microcal) software.
(§3) To test these computational predictions, the inventors mutated each or both of the two M1 key wild-type GIRK4 subunit residues to the corresponding GIRK2 residues (GIRK4-V92I, GIRK4-T94V, GIRK4-V92I/T94V or GIRK4-dm) and vice-versa the GIRK2 residues to the corresponding GIRK4 ones (GIRK2-I97V, GIRK2-V99T, GIRK2-I97V/V99T or GIRK2-dm) (FIG. 35). […]

GIRK1/4(VT-IV) = molecular target: T2, GIRK1/4(VT-IV) (Homo sapiens, UniProt P48544+P48549, T94V/V92I); assay: TEVC in Xenopus oocytes, double mutant GIRK1/4(VT-IV); format: cell-based; settings: GIRK1/4(VT-IV) double mutant
T2 construct: expressed in transfected cells; host or cells: Xenopus laevis oocytes (cRNA injection)
T2 sequence (P48549 1-501): T1 sequence (P48549 1-501)
T2 sequence (P48544 1-419 V92I/T94V): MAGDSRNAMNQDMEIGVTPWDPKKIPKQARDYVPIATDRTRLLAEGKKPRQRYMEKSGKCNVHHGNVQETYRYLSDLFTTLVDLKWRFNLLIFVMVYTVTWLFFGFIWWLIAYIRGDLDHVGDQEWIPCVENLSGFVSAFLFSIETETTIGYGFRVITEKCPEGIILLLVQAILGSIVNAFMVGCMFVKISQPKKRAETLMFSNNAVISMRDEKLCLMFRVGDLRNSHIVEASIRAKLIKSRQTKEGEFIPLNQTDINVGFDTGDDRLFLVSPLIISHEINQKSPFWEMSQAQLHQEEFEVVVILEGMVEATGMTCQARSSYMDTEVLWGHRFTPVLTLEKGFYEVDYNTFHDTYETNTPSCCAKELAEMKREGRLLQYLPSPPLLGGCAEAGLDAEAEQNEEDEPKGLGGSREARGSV
Description: as §1, §2, §3

[1] = read-out: EMAX, % of the control GIRK1/2

- EC50 (GIRK1/2(I-V)): 500 ± 110 nM
- EMAX (GIRK1/2(I-V)): 1.61±0.03
- Emax (GIRK1/2(I-V); [1]): 42%
- EC50 (GIRK1/4(VT-IV)): 550 ± 110 nM
- EMAX (GIRK1/4(VT-IV)): 1.76±0.03
- Emax (GIRK1/4(VT-IV); [1]): 75%
SMILES: Cc1cc(NC(=O)Nc2ccc(Br)s2)n(-c2ccccc2)n1 [GAT1508, 1-(5-bromothiophen-2-yl)-3-(3-methyl-1-phenyl-1H-pyrazol-5-yl)urea]
